#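 A five-concentration, 48-hour dose response in 96-well plates underlies each endpoint, interpolated linearly between surrounding concentrations. GI50 is the concentration that inhibits growth by half. Definition used: TGI = concentration required for complete inhibition of growth.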
# Tests used:
# Test in all cases: DTP human tumour cell line panel, 48 h
# SK-MEL-28 melanoma = tested on: SK-MEL-28 melanoma
# NCI-H460 lung = tested on: NCI-H460 lung
# NCI-H522 lung = tested on: NCI-H522 lung
# NCI/ADR-RES ovarian = tested on: NCI/ADR-RES ovarian
# A498 renal = tested on: A498 renal
# 786-0 renal = tested on: 786-0 renal
# LOX IMVI melanoma = tested on: LOX IMVI melanoma
# SK-MEL-2 melanoma = tested on: SK-MEL-2 melanoma
# K-562 leukemia = tested on: K-562 leukemia
# HS 578T breast = tested on: HS 578T breast
# HOP-92 NSCLC = tested on: HOP-92 NSCLC
# HCC-2998 colon = tested on: HCC-2998 colon
# CCRF-CEM leukemia = tested on: CCRF-CEM leukemia
# ACHN renal = tested on: ACHN renal
# A549 NSCLC = tested on: A549 NSCLC
# PC-3 prostate = tested on: PC-3 prostate
# MOLT-4 leukemia = tested on: MOLT-4 leukemia
# SF-268 CNS = tested on: SF-268 CNS
# SW-620 colon = tested on: SW-620 colon
# MDA-MB-231 breast = tested on: MDA-MB-231 breast
# U251 CNS = tested on: U251 CNS
# MALME-3M melanoma = tested on: MALME-3M melanoma
# COLO 205 colon = tested on: COLO 205 colon
# MDA-MB-435 = tested on: MDA-MB-435
# HT29 colon = tested on: HT29 colon
# UACC-62 melanoma = tested on: UACC-62 melanoma
# RXF 393 renal = tested on: RXF 393 renal
# TK-10 renal = tested on: TK-10 renal
# M14 melanoma = tested on: M14 melanoma
# OVCAR-8 ovarian = tested on: OVCAR-8 ovarian
# BT-549 breast = tested on: BT-549 breast
# SNB-19 CNS = tested on: SNB-19 CNS
# EKVX NSCLC = tested on: EKVX NSCLC
# UACC-257 melanoma = tested on: UACC-257 melanoma
# UO-31 renal = tested on: UO-31 renal
# SK-OV-3 ovarian = tested on: SK-OV-3 ovarian
# HL-60(TB) leukemia = tested on: HL-60(TB) leukemia
# OVCAR-3 ovarian = tested on: OVCAR-3 ovarian
# HOP-62 NSCLC = tested on: HOP-62 NSCLC
# KM12 colon = tested on: KM12 colon
# HCT-116 colon = tested on: HCT-116 colon
# CAKI-1 renal = tested on: CAKI-1 renal
# NCI-H226 lung = tested on: NCI-H226 lung
# SR leukemia = tested on: SR leukemia
# SK-MEL-5 melanoma = tested on: SK-MEL-5 melanoma
# DU-145 prostate = tested on: DU-145 prostate
# SF-539 CNS = tested on: SF-539 CNS
# OVCAR-4 ovarian = tested on: OVCAR-4 ovarian
# SNB-75 CNS = tested on: SNB-75 CNS
# HCT-15 colon = tested on: HCT-15 colon
# SN12C renal = tested on: SN12C renal
# SF-295 CNS = tested on: SF-295 CNS
# OVCAR-5 ovarian = tested on: OVCAR-5 ovarian
# RPMI-8226 leukemia = tested on: RPMI-8226 leukemia
# MCF7 breast = tested on: MCF7 breast
# T-47D breast = tested on: T-47D breast
smiles,measurement,setting,value
Cn1cc(-c2cc(N)n3nc(-c4cn(C)c5ccc(F)cc45)cc3n2)c2cc(F)ccc21,GI50,SK-MEL-28 melanoma,1.79 µM
same,TGI,SK-MEL-28 melanoma,3.23 µM
same,GI50,NCI-H460 lung,1.9 µM
same,TGI,NCI-H460 lung,3.75 µM
same,GI50,NCI-H522 lung,1.62 µM
same,TGI,NCI-H522 lung,3.28 µM
same,GI50,NCI/ADR-RES ovarian,2.06 µM
same,TGI,NCI/ADR-RES ovarian,4.6 µM
same,GI50,A498 renal,1.94 µM
same,TGI,A498 renal,6.18 µM
same,GI50,786-0 renal,1.5 µM
same,TGI,786-0 renal,3 µM
same,GI50,LOX IMVI melanoma,2.57 µM
same,TGI,LOX IMVI melanoma,4.22 µM
same,GI50,SK-MEL-2 melanoma,2.11 µM
same,TGI,SK-MEL-2 melanoma,5.97 µM
same,GI50,K-562 leukemia,2.79 µM
same,TGI,K-562 leukemia,10 µM
same,GI50,HS 578T breast,2.45 µM
same,TGI,HS 578T breast,5.9 µM
same,GI50,HOP-92 NSCLC,1.9 µM
same,TGI,HOP-92 NSCLC,3.5 µM
same,GI50,HCC-2998 colon,1.74 µM
same,TGI,HCC-2998 colon,3.24 µM
same,GI50,CCRF-CEM leukemia,2.75 µM
same,TGI,CCRF-CEM leukemia,7.92 µM
same,GI50,ACHN renal,1.74 µM
same,TGI,ACHN renal,3.13 µM
same,GI50,A549 NSCLC,1.56 µM
same,TGI,A549 NSCLC,3.01 µM
same,GI50,PC-3 prostate,1.89 µM
same,TGI,PC-3 prostate,3.84 µM
same,GI50,MOLT-4 leukemia,2.31 µM
same,TGI,MOLT-4 leukemia,7.01 µM
same,GI50,SF-268 CNS,1.89 µM
same,TGI,SF-268 CNS,3.95 µM
same,GI50,SW-620 colon,1.78 µM
same,TGI,SW-620 colon,3.41 µM
same,GI50,MDA-MB-231 breast,2 µM
same,TGI,MDA-MB-231 breast,3.79 µM
same,GI50,U251 CNS,1.68 µM
same,TGI,U251 CNS,3.17 µM
same,GI50,MALME-3M melanoma,1.84 µM
same,TGI,MALME-3M melanoma,3.57 µM
same,GI50,COLO 205 colon,1.75 µM
same,TGI,COLO 205 colon,3.18 µM
same,GI50,MDA-MB-435,1.73 µM
same,TGI,MDA-MB-435,3.38 µM
same,GI50,HT29 colon,1.64 µM
same,TGI,HT29 colon,3.2 µM
same,GI50,UACC-62 melanoma,1.71 µM
same,TGI,UACC-62 melanoma,3.28 µM
same,GI50,RXF 393 renal,1.83 µM
same,TGI,RXF 393 renal,3.53 µM
same,GI50,TK-10 renal,1.62 µM
same,TGI,TK-10 renal,5.91 µM
same,GI50,M14 melanoma,1.68 µM
same,TGI,M14 melanoma,3.35 µM
same,GI50,OVCAR-8 ovarian,1.82 µM
same,TGI,OVCAR-8 ovarian,3.53 µM
same,GI50,BT-549 breast,1.76 µM
same,TGI,BT-549 breast,3.51 µM
same,GI50,SNB-19 CNS,2.01 µM
same,TGI,SNB-19 CNS,4.11 µM
same,GI50,EKVX NSCLC,1.73 µM
same,TGI,EKVX NSCLC,3.5 µM
same,GI50,UACC-257 melanoma,1.78 µM
same,TGI,UACC-257 melanoma,3.58 µM
same,GI50,UO-31 renal,1.52 µM
same,TGI,UO-31 renal,2.95 µM
same,GI50,SK-OV-3 ovarian,20.9 µM
same,TGI,SK-OV-3 ovarian,40.5 µM
same,GI50,HL-60(TB) leukemia,1.83 µM
same,TGI,HL-60(TB) leukemia,5.04 µM
same,GI50,OVCAR-3 ovarian,1.74 µM
same,TGI,OVCAR-3 ovarian,3.16 µM
same,GI50,HOP-62 NSCLC,1.99 µM
same,TGI,HOP-62 NSCLC,4.31 µM
same,GI50,KM12 colon,1.84 µM
same,TGI,KM12 colon,3.56 µM
same,GI50,HCT-116 colon,1.85 µM
same,TGI,HCT-116 colon,3.57 µM
same,GI50,CAKI-1 renal,2.04 µM
same,TGI,CAKI-1 renal,4.42 µM
same,GI50,NCI-H226 lung,6.5 µM
same,TGI,NCI-H226 lung,27.8 µM
same,GI50,SR leukemia,1.97 µM
same,TGI,SR leukemia,8.4 µM
same,GI50,SK-MEL-5 melanoma,1.71 µM
same,TGI,SK-MEL-5 melanoma,3.17 µM
same,GI50,DU-145 prostate,1.8 µM
same,TGI,DU-145 prostate,3.38 µM
same,GI50,SF-539 CNS,1.9 µM
same,TGI,SF-539 CNS,3.45 µM
same,GI50,OVCAR-4 ovarian,1.9 µM
same,TGI,OVCAR-4 ovarian,3.9 µM
same,GI50,SNB-75 CNS,2.29 µM
same,TGI,SNB-75 CNS,12.4 µM
same,GI50,HCT-15 colon,1.85 µM
same,TGI,HCT-15 colon,3.94 µM
same,GI50,SN12C renal,1.9 µM
same,TGI,SN12C renal,3.66 µM
same,GI50,SF-295 CNS,1.94 µM
same,TGI,SF-295 CNS,3.73 µM
same,GI50,OVCAR-5 ovarian,1.93 µM
same,TGI,OVCAR-5 ovarian,4.1 µM
same,GI50,RPMI-8226 leukemia,2.64 µM
same,TGI,RPMI-8226 leukemia,8.01 µM
same,GI50,MCF7 breast,1.67 µM
same,TGI,MCF7 breast,3.19 µM
same,GI50,T-47D breast,1.75 µM
same,TGI,T-47D breast,3.69 µM
NC(N)=Nc1ccc(Oc2cccc(Nc3ccc(Br)c(C(F)(F)F)c3)c2)cn1,GI50,NCI/ADR-RES ovarian,3.93 µM
same,TGI,NCI/ADR-RES ovarian,29.5 µM
same,GI50,K-562 leukemia,2.07 µM
same,TGI,K-562 leukemia,> 100 µM
same,GI50,ACHN renal,1.75 µM
same,TGI,ACHN renal,3.2 µM
same,GI50,SK-OV-3 ovarian,2.04 µM
same,TGI,SK-OV-3 ovarian,3.68 µM
same,GI50,HL-60(TB) leukemia,1.63 µM
same,TGI,HL-60(TB) leukemia,4.12 µM
